The target of data set [1] is Amyloid-beta precursor protein (Homo sapiens) (UniProt P05067). In words: Binding affinity to amyloid beta aggregates in Alzheimer patient hippocampus by fluorescence microscopy. Format: tissue-based.
In data set [2] the target is T1, Microtubule-associated protein tau (Homo sapiens, UniProt P10636). In words: Binding affinity to Tau aggregates in Alzheimer patient hippocampus by fluorescence microscopy. Format: tissue-based.
Data set [3] is described as follows: Aqueous solubility of the compound. The data set is classed as physicochemical. Particulars: buffer.
For data set [4], the species on record is Danio rerio. In words: Toxicity against Zebra fish embryo assessed as lesions up to 10 uM at 24 hrs post-fertilization by microscopic analysis. The data set is classed as organism-based. The note with it: zebrafish, in vivo.
Data set [5] deals with T1, Microtubule-associated protein tau. Kind of data set: Displacement of thiazine red R from human Tau aggregate expressed in Escherichia coli after 30 mins by fluorimetric analysis.
The next data set deals with HepG2. Kind of data set: Cytotoxicity against human HepG2 cells after 24 hrs. Format: cell-based. Particulars: HepG2, 24 h.
Data set [6] in a line: Displacement of thiazine red R from amyloid beta (1 to 40) aggregate after 30 mins by fluorimetric analysis.
The species named for data set [7] is Danio rerio. In words: Toxicity against juvenile Zebra fish assessed as lesions in yolk sac up to 10 uM at 72 hrs post-fertilization by microscopic analysis. The note with it: zebrafish, in vivo. The data set is classed as organism-based.
Data set [8] in a line: Binding affinity to amyloid beta (1 to 40) aggregate.

Structures are written as SMILES. The source made the active and inactive calls. The calls are words filed in the database; no cut-off is given here. Where only a bound is given, the exact number is not on record here.

Sequence of Amyloid-beta precursor protein (Homo sapiens) (P05067 whole entry): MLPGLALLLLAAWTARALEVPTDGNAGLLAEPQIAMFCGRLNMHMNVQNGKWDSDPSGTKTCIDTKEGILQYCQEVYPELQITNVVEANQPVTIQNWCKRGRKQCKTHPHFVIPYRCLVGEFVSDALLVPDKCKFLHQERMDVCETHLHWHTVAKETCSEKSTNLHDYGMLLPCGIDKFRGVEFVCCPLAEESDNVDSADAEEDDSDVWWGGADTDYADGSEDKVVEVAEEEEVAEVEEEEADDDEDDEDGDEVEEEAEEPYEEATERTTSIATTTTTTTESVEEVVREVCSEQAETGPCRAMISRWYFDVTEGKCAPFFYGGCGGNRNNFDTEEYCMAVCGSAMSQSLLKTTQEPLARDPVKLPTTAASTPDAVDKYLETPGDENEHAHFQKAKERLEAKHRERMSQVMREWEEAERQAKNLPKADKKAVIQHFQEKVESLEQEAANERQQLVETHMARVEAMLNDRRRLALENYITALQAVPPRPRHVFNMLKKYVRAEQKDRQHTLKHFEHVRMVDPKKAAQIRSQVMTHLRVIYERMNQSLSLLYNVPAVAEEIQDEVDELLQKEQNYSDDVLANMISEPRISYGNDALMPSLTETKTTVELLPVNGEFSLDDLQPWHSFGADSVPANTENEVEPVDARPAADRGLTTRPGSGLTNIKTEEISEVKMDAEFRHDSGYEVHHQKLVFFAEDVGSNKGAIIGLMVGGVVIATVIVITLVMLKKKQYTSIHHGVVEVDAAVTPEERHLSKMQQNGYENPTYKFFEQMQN
T1 sequence (P10636 whole entry): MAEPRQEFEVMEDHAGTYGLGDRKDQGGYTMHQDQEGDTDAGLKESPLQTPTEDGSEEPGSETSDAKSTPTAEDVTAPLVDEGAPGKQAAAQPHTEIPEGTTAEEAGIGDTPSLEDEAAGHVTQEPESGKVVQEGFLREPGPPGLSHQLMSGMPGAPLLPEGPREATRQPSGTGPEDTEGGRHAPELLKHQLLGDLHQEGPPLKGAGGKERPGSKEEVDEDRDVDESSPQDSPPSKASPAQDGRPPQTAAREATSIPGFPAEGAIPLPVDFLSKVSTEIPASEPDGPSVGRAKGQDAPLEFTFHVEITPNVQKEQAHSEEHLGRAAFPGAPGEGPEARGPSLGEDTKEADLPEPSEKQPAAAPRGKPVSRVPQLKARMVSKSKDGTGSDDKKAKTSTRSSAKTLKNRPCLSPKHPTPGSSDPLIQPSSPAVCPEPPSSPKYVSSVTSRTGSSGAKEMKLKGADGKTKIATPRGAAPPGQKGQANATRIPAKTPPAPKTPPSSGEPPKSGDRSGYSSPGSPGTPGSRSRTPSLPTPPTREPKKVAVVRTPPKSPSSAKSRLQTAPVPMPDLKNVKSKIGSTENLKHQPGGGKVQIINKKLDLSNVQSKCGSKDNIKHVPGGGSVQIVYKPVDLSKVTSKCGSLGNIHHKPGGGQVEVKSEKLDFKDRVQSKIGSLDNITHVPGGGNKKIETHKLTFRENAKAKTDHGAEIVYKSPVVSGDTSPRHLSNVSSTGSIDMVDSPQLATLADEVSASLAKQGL

For `C[N+]1=C(/C=C/c2ccc(O)cc2)C(C)(C)c2ccccc21.[I-]`, in data set [1], the outcome was inactive. In [2], the result was Active. The solubility in [3] was greater than 500 µg/mL.

For `C[N+]1=C(/C=C/c2ccc(N3CCCC3)cc2)C(C)(C)c2ccccc21.[I-]`, the outcome in data set [1] was inactive. Besides, the result in [2] was Active. The solubility in data set [3] was greater than 500 µg/mL. In the data set filed under Danio rerio [4], the Activity result was “Non-toxic”. In addition, in data set [5], the IC50 was found to be 5.1 nM. In addition, in the data set with HepG2, it took 8310 nM to reach a half-maximal effect (EC50).

On to `CNc1ccc(-c2ccc3ccccc3n2)cc1`, for which the IC50 in data set [5] and in [6] was greater than 10000 nM in each case.

As for `COc1ccc(/C=C/C2=[N+](C)c3ccccc3C2(C)C)cc1.[I-]`, the outcome in data set [1] was inactive. In addition, the outcome in [2] was Active. The solubility in data set [3] was greater than 500 µg/mL. Also, the Activity entry in the data set listed under Danio rerio [4] is recorded as “Non-toxic”. In the data set on HepG2, this compound had a concentration for a half-maximal effect (EC50) of 10900 nM.

Consider `CC(=C(C#N)C#N)c1ccc2cc(N(C)CCF)ccc2c1`, for which the values for the IC50 in [5] and in data set [6] were 1630 nM and 1470 nM, respectively.

The compound `CNc1ccc(-c2nc3ccc(O)cc3s2)cc1` [PITTSBURGH COMPOUND B UNLABELLED] gave a half-inhibitory concentration (IC50) in data set [5] of 3260 nM.

Take `CN1CCN(c2ccc(/C=C/C3=[N+](C)c4ccccc4C3(C)C)cc2)CC1.[I-]`: the result in data set [1] was inactive. In data set [2], the outcome was Active. Moreover, the solubility in data set [3] is greater than 500 µg/mL.

In the case of `CCCC[N+]1=C(/C=C/c2ccc(N(CC)CC)cc2)C(C)(C)c2ccccc21.[I-]`, the outcome in data set [1] was inactive. In [2], the result was Active. The results for the Activity entry in the data set filed under Danio rerio [7] and in the data set listed under Danio rerio [4] were “Toxic” and “Non-toxic”, respectively. The solubility in data set [3] is greater than 100 µg/mL. The IC50 is 1.41 nM in [5] and 1.37 nM in data set [6]. The compound further displayed a concentration for a half-maximal effect (EC50) in the data set with HepG2 of 930 nM.

Take `CCN(CC)c1ccc(/C=C/C2=[N+](C)c3ccccc3C2(C)C)cc1.[I-]`: the outcome in data set [1] was inactive. Further, the result in data set [2] was Active. In addition, the solubility in [3] was greater than 500 µg/mL. Besides, in the data set filed under Danio rerio [4], the Activity entry is given as “Non-toxic”. This compound showed an EC50 in the data set with HepG2 of 8570 nM.

Turning to `COc1cc(/C=C/c2ccc(O)cc2)ccc1/C=C/c1ccc(O)cc1`, in data set [6], the 50% inhibitory concentration (IC50) came out at 140 nM. The compound also came in with a Ki in [8] of 26.8 nM.

As usually defined, the solubility is the dissolved amount per volume that the medium holds. A low value points to a poorly soluble substance. As a reminder, the IC50 is the concentration that gives 50% inhibition. The low end stands for greater potency in that assay, the high end for weaker potency in that assay. For orientation: EC50 means the concentration needed to bring the measured effect to its halfway point. The term Ki denotes a measure of affinity in units of concentration, obtained from inhibition or displacement. Low readings indicate a stronger hold on the target, high ones a looser hold on the target.
